The source of these data is PMC10210181 (ACS Omega, 2023).

The target in this test is S. aureus DNA gyrase (Staphylococcus aureus, UniProt P0A0K8+P20831). The test is described as follows: DNA gyrase supercoiling assay, purified gyrase and relaxed plasmid DNA kit. It is filed as biochemical.

The structures appear in SMILES notation.

S. aureus DNA gyrase, sequence (P20831 whole entry): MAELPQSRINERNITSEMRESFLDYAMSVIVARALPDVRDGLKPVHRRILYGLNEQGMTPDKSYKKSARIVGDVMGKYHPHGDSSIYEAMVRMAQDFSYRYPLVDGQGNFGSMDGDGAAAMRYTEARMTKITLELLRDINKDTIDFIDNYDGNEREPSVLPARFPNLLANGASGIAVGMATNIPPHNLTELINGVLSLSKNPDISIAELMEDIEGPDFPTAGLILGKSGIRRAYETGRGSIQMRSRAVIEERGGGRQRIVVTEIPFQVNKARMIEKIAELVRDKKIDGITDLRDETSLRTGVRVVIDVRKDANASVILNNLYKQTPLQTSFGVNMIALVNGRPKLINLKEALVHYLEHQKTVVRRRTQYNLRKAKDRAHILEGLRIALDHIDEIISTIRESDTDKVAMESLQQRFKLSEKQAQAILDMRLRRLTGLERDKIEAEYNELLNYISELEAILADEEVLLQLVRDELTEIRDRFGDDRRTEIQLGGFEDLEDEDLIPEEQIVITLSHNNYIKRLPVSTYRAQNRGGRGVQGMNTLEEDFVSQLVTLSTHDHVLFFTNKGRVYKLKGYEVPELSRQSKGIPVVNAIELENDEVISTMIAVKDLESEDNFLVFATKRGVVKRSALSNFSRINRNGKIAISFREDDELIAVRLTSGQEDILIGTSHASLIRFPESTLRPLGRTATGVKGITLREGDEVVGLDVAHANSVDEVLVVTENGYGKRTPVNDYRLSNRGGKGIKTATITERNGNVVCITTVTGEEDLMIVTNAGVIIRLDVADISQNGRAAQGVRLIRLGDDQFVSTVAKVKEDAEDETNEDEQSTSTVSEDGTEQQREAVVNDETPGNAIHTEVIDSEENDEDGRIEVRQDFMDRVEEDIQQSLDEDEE
S. aureus DNA gyrase, sequence (P0A0K8 2-644): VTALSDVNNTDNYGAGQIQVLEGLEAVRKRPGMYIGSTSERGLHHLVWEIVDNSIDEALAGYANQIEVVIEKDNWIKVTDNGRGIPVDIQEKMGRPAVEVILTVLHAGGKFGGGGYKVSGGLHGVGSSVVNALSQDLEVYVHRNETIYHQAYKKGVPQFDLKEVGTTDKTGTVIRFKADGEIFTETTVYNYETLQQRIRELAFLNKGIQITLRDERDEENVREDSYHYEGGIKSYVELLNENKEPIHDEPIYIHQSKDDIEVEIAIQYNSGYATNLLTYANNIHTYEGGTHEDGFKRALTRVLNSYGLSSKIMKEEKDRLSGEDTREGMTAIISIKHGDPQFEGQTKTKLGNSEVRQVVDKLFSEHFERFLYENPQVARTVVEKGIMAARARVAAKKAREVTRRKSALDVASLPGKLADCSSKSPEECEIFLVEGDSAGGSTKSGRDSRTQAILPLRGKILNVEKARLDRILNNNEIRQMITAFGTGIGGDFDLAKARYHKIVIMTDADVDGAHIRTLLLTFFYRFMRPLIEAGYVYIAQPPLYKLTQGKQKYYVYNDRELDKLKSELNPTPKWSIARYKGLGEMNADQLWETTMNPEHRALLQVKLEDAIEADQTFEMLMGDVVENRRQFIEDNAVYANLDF

Broadly, the IC50 is the midpoint of a concentration-inhibition curve. As for `COc1ccc(NC(=O)CNNC(=O)c2cc(-c3ccc(Br)cc3)nc3ccccc23)cc1` [6b, 2-(2-(2-(4-Bromophenyl)quinoline-4-carbonyl)hydrazinyl)-N-(4-methoxyphenyl)acetamide], the IC50 worked out at 33.6 µM.

For the compound `N=C1CC(N)=NN1C(=O)c1cc(-c2ccc(Br)cc2)nc2ccccc12` [compound 10, (3-Amino-5-imino-4,5-dihydro-1H-pyrazol-1-yl)(2-(4-bromophenyl)quinolin-4-yl)methanone], half-maximal inhibition (IC50) required 8.45 µM.
